According to publication PMC7156458, “Synthetic biology based construction of biological activity-related library of fungal decalin-containing diterpenoid pyrones” (Nature Communications, 2020):

Experiments:
Assay in all cases: cells
Design in all cases: species or system JFCR39 human cancer cell lines; JFCR39 panel growth inhibition, sulforhodamine B total protein after 48 h
BSY-1 = details: for GI50: BSY-1, 48 h
Description: (§1) Supplementary Note 24. Antiproliferative effects across the panel of JFCR39 cancer cell lines A panel of 39 human cancer cell lines, termed JFCR39, were previously described13-16. Cells were grown in RPMI-1640 (FUJIFILM Wako Pure Chemical Corporation, Tokyo, Japan) supplemented with 1 µg mL-1 kanamycin and 5% (v/v) fetal bovine serum (Nichirei Biosciences Inc, Tokyo, Japan) and incubated at 37°C in a humidified atmosphere supplemented with 5% CO2. Drug efficacy was assessed as changes in total cellular protein after 48 hours of drug treatment using a sulforhodamine B assay. Assays were done in duplicate and the GI50 was calculated as described previously13,16. The antitumor profile across the JFCR39 panel, or fingerprints were then compared to reference database containing ~2000 compounds by COMPARE algorithm16,17. Initially, we evaluated new DDP analogues for their antiproliferative activities across the panel of 39 human cancer cell lines, JFCR39[50],[51].

KM-12 = details: Homo sapiens, KM12, 48 h
Description: as §1

MCF-7 = details: Homo sapiens, MCF7, 48 h
Description: as §1

MDA-MB-231 = details: Homo sapiens, MDA-MB-231, 48 h
Description: as §1

MKN-B = details: 48 h
Description: as §1

NCI-H226 = details: for GI50: Homo sapiens, NCI-H226, 48 h
Description: as §1

NCI-H460 = details: for GI50: Homo sapiens, NCI-H460, 48 h
Description: as §1

OVCAR-3 = details: Homo sapiens, OVCAR-3, 48 h
Description: as §1

OVCAR-8 = details: Homo sapiens, OVCAR-8, 48 h
Description: as §1

SF-295 = details: Homo sapiens, SF-295, 48 h
Description: as §1

SK-OV-3 = details: Homo sapiens, SK-OV-3, 48 h
Description: as §1

St-4 = details: Homo sapiens, St-4, 48 h
Description: as §1

U251 = details: Homo sapiens, U-251, 48 h
Description: as §1

ACHN = details: 48 h; for GI50: Homo sapiens, ACHN
Description: as §1

DU-145 = details: Homo sapiens, DU-145, 48 h
Description: as §1

HBC-4 = details: HBC4, 48 h
Description: as §1

HT-29 = details: Homo sapiens, HT-29, 48 h
Description: as §1

MKN74 = details: for GI50: Homo sapiens, MKN-74, 48 h
Description: as §1

NCI-H522 = details: Homo sapiens, NCI-H522, 48 h
Description: as §1

OVCAR-5 = details: Homo sapiens, OVCAR-5, 48 h
Description: as §1

SNB-75 = details: Homo sapiens, SNB-75, 48 h
Description: as §1

[1] = 48 h, inhibitor, Log GI50, 48 h

## C=C1CCC2C(C)(CC(=O)C=C(C)C)C(O)CCC2(C)C1Cc1c(O)c(C)c(C)oc1=O (centres unmarked) [Compound 7]
BSY-1
  GI50: 37 µM
KM-12
  GI50: 56 µM
MCF-7
  GI50: 22.6 µM
MDA-MB-231
  GI50: 58.3 µM
MKN-B
  GI50: 37.7 µM
NCI-H226
  GI50: 33.4 µM
NCI-H460
  GI50: 11.6 µM
OVCAR-3
  GI50: 20.6 µM
OVCAR-8
  GI50: 35.7 µM
SF-295
  GI50: 25.4 µM
SK-OV-3
  GI50: 60.8 µM
St-4
  GI50: 69.2 µM
U251
  GI50: 95.5 µM

## C=C1CCC2C(C)(CCC=C(C)C)C(O)CCC2(C)C1Cc1c(OC)oc(C)c(C)c1=O (centres unmarked) [Compound 11]
ACHN
  GI50: 11 µM
BSY-1
  GI50: 11.5 µM
DU-145
  GI50: 16.5 µM
HBC-4
  GI50: 35.8 µM
HT-29
  GI50: 13.6 µM
MCF-7
  GI50: 1.88 µM
MDA-MB-231
  GI50: 22.6 µM
MKN-B
  GI50: 3.7 µM
MKN74
  GI50: 4.76 µM
NCI-H226
  GI50: 18.2 µM
NCI-H460
  GI50: 0.0865 µM
NCI-H522
  GI50: 1.95 µM
OVCAR-3
  GI50: 3.61 µM
OVCAR-5
  GI50: 42.4 µM
OVCAR-8
  GI50: 3.61 µM
SNB-75
  GI50: 27.8 µM
St-4
  GI50: 24.9 µM
U251
  GI50: 22.8 µM

## C=C1CCC2C(C)(CCC=C(C)C)C(O)CCC2(C)C1Cc1c(OC)oc(CO)c(C)c1=O (centres unmarked) [Compound 12]
ACHN; inhibitor, Log GI50, 48 h
  Log GI50: -4.976 M
BSY-1; [1]
  Log GI50: -5.304 M
DU-145
  GI50: 11.8 µM
HBC-4
  GI50: 13.8 µM
HT-29
  GI50: 12.6 µM
KM-12
  GI50: 12.9 µM
MDA-MB-231
  GI50: 13.5 µM
MKN-B; inhibitor, Log GI50, 48 h
  Log GI50: -5.948 M
MKN74; [1]
  Log GI50: -5.381 M
NCI-H226; [1]
  Log GI50: -4.935 M
NCI-H460; [1]
  Log GI50: -7.132 M
NCI-H522
  GI50: 1.46 µM
OVCAR-3
  GI50: 4.69 µM
OVCAR-5
  GI50: 19.5 µM
OVCAR-8
  GI50: 5.64 µM
SK-OV-3
  GI50: 12.6 µM
SNB-75
  GI50: 18.4 µM
St-4
  GI50: 14.1 µM
U251
  GI50: 15 µM

## C=C1CCC2C(C)(CCC=C(C)C)C(O)CCC2(C)C1Cc1c(OC)oc(CO)c(C(=O)OC)c1=O (centres unmarked) [Compound 13]
ACHN
  GI50: 12 µM
BSY-1
  GI50: 13.9 µM
DU-145
  GI50: 15.2 µM
HBC-4
  GI50: 21.8 µM
HT-29
  GI50: 17.9 µM
KM-12
  GI50: 19.1 µM
MCF-7
  GI50: 13.8 µM
MDA-MB-231
  GI50: 19.6 µM
MKN-B
  GI50: 15.7 µM
MKN74
  GI50: 14.8 µM
NCI-H226
  GI50: 16.9 µM
NCI-H460
  GI50: 11.2 µM
NCI-H522
  GI50: 6.85 µM
OVCAR-3
  GI50: 10.8 µM
OVCAR-5
  GI50: 17.3 µM
OVCAR-8
  GI50: 17.1 µM
SF-295
  GI50: 11.9 µM
SK-OV-3
  GI50: 16.3 µM
SNB-75
  GI50: 18.8 µM
St-4
  GI50: 21.9 µM
U251
  GI50: 19.9 µM

## C=C1CCC2C(C)(CCC=C(C)C)C(O)CCC2(C)C1Cc1c(OC)oc(C)c(C(=O)OC)c1=O (centres unmarked) [Compound 14]
ACHN
  GI50: 10.9 µM
BSY-1
  GI50: 10.2 µM
DU-145
  GI50: 11.8 µM
HBC-4
  GI50: 16.1 µM
HT-29
  GI50: 13.2 µM
KM-12
  GI50: 14.1 µM
MCF-7
  GI50: 2.4 µM
MDA-MB-231
  GI50: 13.2 µM
MKN-B
  GI50: 2.01 µM
MKN74
  GI50: 10.8 µM
NCI-H226
  GI50: 11.7 µM
NCI-H460
  GI50: 0.0735 µM
NCI-H522
  GI50: 1.54 µM
OVCAR-3
  GI50: 10.3 µM
OVCAR-5
  GI50: 18.6 µM
OVCAR-8
  GI50: 8.57 µM
SF-295
  GI50: 11.5 µM
SK-OV-3
  GI50: 13.6 µM
SNB-75
  GI50: 20.1 µM
St-4
  GI50: 14.6 µM
U251
  GI50: 15 µM

## C=C1CC[C@H]2[C@]3(C)C[C@@H](C=C(C)C)O[C@H]3CC[C@]2(C)[C@@H]1Cc1c(OC)oc(CO)c(C)c1=O [Compound 17]
ACHN
  GI50: 10.8 µM
BSY-1
  GI50: 12.8 µM
DU-145
  GI50: 13.2 µM
HBC-4
  GI50: 16.6 µM
HT-29
  GI50: 14.3 µM
KM-12
  GI50: 14.5 µM
MDA-MB-231
  GI50: 13.9 µM
MKN-B
  GI50: 10 µM
MKN74
  GI50: 13 µM
NCI-H226
  GI50: 14 µM
NCI-H460
  GI50: 0.0916 µM
NCI-H522
  GI50: 10.5 µM
OVCAR-3
  GI50: 10.5 µM
OVCAR-5
  GI50: 15.5 µM
OVCAR-8
  GI50: 10.8 µM
SF-295
  GI50: 10.7 µM
SK-OV-3
  GI50: 12.1 µM
SNB-75
  GI50: 16.9 µM
St-4
  GI50: 15.2 µM
U251
  GI50: 14.3 µM

## C=C1CCC2C(C)(CC(=O)C=C(C)C)C(O)CCC2(C)C1Cc1c(OC)oc(CO)c(C)c1=O (centres unmarked) [Compound 19]
ACHN
  GI50: 14.8 µM
BSY-1
  GI50: 33.3 µM
DU-145
  GI50: 42.9 µM
HT-29
  GI50: 46 µM
KM-12
  GI50: 56.2 µM
MCF-7
  GI50: 25.4 µM
MKN-B
  GI50: 15.2 µM
MKN74
  GI50: 31 µM
NCI-H226
  GI50: 19.1 µM
NCI-H460
  GI50: 6 µM
NCI-H522
  GI50: 12.4 µM
OVCAR-3
  GI50: 18.4 µM
OVCAR-8
  GI50: 40.8 µM
SF-295
  GI50: 17.2 µM
SK-OV-3
  GI50: 83.2 µM
SNB-75
  GI50: 53.8 µM
St-4
  GI50: 75.3 µM
U251
  GI50: 69.7 µM

## C=C1CC[C@@H]2[C@](C)(CC[C@H]3O[C@H](C=C(C)C)C[C@@]23C)[C@@H]1Cc1c(OC)oc(CO)c(C)c1=O [Compound 20]
ACHN
  GI50: 11.1 µM
BSY-1
  GI50: 12.2 µM
DU-145
  GI50: 12.7 µM
HBC-4
  GI50: 15.6 µM
HT-29
  GI50: 14.6 µM
KM-12
  GI50: 14.8 µM
MDA-MB-231
  GI50: 13.1 µM
MKN-B
  GI50: 1.06 µM
MKN74
  GI50: 12.9 µM
NCI-H226
  GI50: 13.6 µM
NCI-H460
  GI50: 0.0811 µM
OVCAR-3
  GI50: 3.81 µM
OVCAR-5
  GI50: 16.4 µM
OVCAR-8
  GI50: 12.3 µM
SF-295
  GI50: 11.2 µM
SK-OV-3
  GI50: 13.3 µM
SNB-75
  GI50: 16.4 µM
St-4
  GI50: 14.3 µM
U251
  GI50: 13.8 µM

## C=C1CC[C@@H]2[C@](C)(CC[C@H]3O[C@H](C=C(C)C)C[C@@]23C)[C@@H]1Cc1c(OC)oc(C)c(C)c1=O [Compound 22, O-methylated higginsianin A]
ACHN
  GI50: 2.33 µM
HBC-4
  GI50: 11.9 µM
HT-29
  GI50: 7.66 µM
KM-12
  GI50: 10.6 µM
MCF-7
  GI50: 1.5 µM
MKN-B
  GI50: 0.54 µM
MKN74
  GI50: 3.33 µM
NCI-H226
  GI50: 3.79 µM
NCI-H460
  GI50: 0.0807 µM
NCI-H522
  GI50: 0.478 µM
OVCAR-3
  GI50: 2.34 µM
OVCAR-5
  GI50: 13.4 µM
OVCAR-8
  GI50: 4.78 µM
SF-295
  GI50: 2.45 µM
SK-OV-3
  GI50: 10.6 µM
SNB-75
  GI50: 10 µM
St-4
  GI50: 11 µM
U251
  GI50: 11.6 µM
